This is an account of results in patent US7666868B2, “N-sulphonylpyrroles and their use as histone deacetylase inhibitors” (4SC AG, priority 2005, dated 2010).

pEC50, pIC50: −log10 of the molar value.

For data set [1], the system named is histone H3 acetylation (lysine 9+14) in HeLa cervical carcinoma cells. Kind of data set: Cellular histone H3 acetylation assay. It counts as cell-based. To be noted: Homo sapiens, 24 h incubation with compound, read-out: EC50 (histone H3 acetylating cellular potency). The source says: To assess the cellular efficacy of an histone deactylase inhibitor in vitro, an assay is set up in black clear-bottom 96-well plates and optimized for use on the Cellomics “ArrayScan II” platform for a quantitative calculation of histone acetylation. The protocol uses a polyclonal rabbit antibody, specifically binding to acetylated lysine 9+14 of human histone H3 on fixed cells with an Alexa Fluor 488 labeled goat ant rabbit-IgG used for counterstaining (modified from Braunger et al. MCR annual conference 2003, Abstract 4556).
5×10^3 HeLa cervical carcinoma cells/well (ATCC CCL-2) in 200 μl Dulbecco's modified Eagle's medium (DMEM) containing 10% fetal calf serum are seeded at day 1 in Packard view plates and incubated for 24 h under standard cell culture conditions. On day 2, 2 μl test compound (100× final concentration) is added and incubation continued for further 24 h. On day 3, the culture medium is discarded and attached cells fixed for 15 min at room temperature by addition of 100 μl fixation buffer (3.7% v:v formaldehyde in phosphate buffered saline/PBS). After discarding the fixation buffer and one wash with PBS, cells are permeabilized at room temperature by addition of 100 μl/well permeabilization buffer (30.8 mM NaCl, 0.54 mM Na2HPO4, 0.31 mM KH2PO4, 5% v:v Triton X-100) for 15 min at room temperature. After discarding the permeabilization buffer and washing twice with 100 μl/well blocking solution (PBS with 0.05% v:v Tween 20 and 5% w:v milk powder) at room temperature, the 1st antibody (anti-K9+14 histone H3 antibody, Calbiochem No. 382158) in blocking solution (50 μl/well) is added. After incubation for 1 h at 37° C., the wells are washed twice at room temperature with 100 μl/well blocking solution before addition of the 2nd antibody (goat-anti-rabbit Alexa Fluor 488; MoBiTec No. A-11008) in blocking solution (50 μl/well). After further incubation for 1 h at 37° C., wells are washed twice with 100 μl/well blocking solution room temperature. Finally, 100 d/well PBS are added and image analysis performed on the Cellomics “ArrayScan II” platform. For calculation of EC50 values, the nuclear fluorescence in cells treated with and without a reference HDAC inhibitor (eg NVP-LBH-589) are taken as a positive and negative control. For EC50 determination, the percentage of positive cells is determined and EC50 calculation done from concentration-effect curves by means of non-linear regression.

Data set [2] deals with HeLa cervical carcinoma cell line. Briefly: Cellular cytotoxicity assay (Alamar Blue / Resazurin). It is filed as cell-based. To be noted: Homo sapiens; HeLa cells, 48 hours incubation; read-out: IC50 (anti-proliferative/cytotoxic potency). As for the experimental part: The anti-proliferative activity of the histone deacetylase inhibitory compounds as described herein, is evaluated with the HeLa cervical carcinoma cell line (ATCC CCL2) using the Alamar Blue (Resazurin) cell viability assay (O'Brien et al. Eur J Biochem 267, 5421-5426, 2000). Resazurin is reduced to the fluorescent resorufin by cellular dehydrogenase activity, correlating with viable, proliferating cells. Test compounds are dissolved as 10 mM solutions in dimethylsulfoxide (DMSO) and subsequently diluted in semi-logarithmic steps. HeLa cells are seeded into 96 well flat bottom plates at a density of 3000 cells per well in a volume of 200 μl per well. 24 hours after seeding 1 μl each of the compound dilutions are added into each well of the 96 Well plate. Each compound dilution is tested as quadruplicates. Wells containing untreated control cells are filled with 200 μl DMEM medium containing 0.5% v:v DMSO. The cells are then incubated with the substances for 48 hours at 37° C. in a humidified atmosphere containing 5% carbon dioxide. To determine the viability of the cells, 20 μl of an Resazurin solution (Sigma; 90 mg/l) are added. After 4 hours incubation at 37° C. the fluorescence is measured at an extinction of 544 nm and an emission of 590 nm. For the calculation of the cell viability the emission value from untreated cells is set as 100% viability and the emission rates of treated cells are set in relation to the values of untreated cells. Viabilites are expressed as % values. The corresponding IC50 values of the compounds for cytotoxic activity are determined from the concentration-effect curves by means of non-linear regression.
(The colour change of resazurin is a common sign of viable cells or microbes.)

The pEC50 is the negative decadic logarithm of the EC50, by convention in mol/L. Regarding `Cn1ccc2cc(-c3ccc(S(=O)(=O)n4ccc(/C=C/C(=O)NO)c4)cc3)ccc21` [Compound 1, (E)-N-Hydroxy-3-{1-[4-(1-methyl-1H-indol-5-yl)-benzenesulfonyl]-1H-pyrrol-3-yl}-acrylamide], the negative-log EC50 (pEC50) in data set [1] is 5.28 to 6.55. The pIC50 in data set [2] is 5.64 to 7.11. Taken in the same sequence, the figures for `Cn1cc(-c2ccc(S(=O)(=O)n3ccc(/C=C/C(=O)NO)c3)cc2)cn1` [Compound 2, (E)-N-Hydroxy-3-{1-[4-(1-methyl-1H-pyrazol-4-yl)-benzenesulfonyl]-1H-pyrrol-3-yl}-acrylamide] were 5.28 to 6.55 and 5.64 to 7.11. In the case of `COc1ccc(-c2ccc(S(=O)(=O)n3ccc(/C=C/C(=O)NO)c3)cc2)cn1` [Compound 3, (E)-N-Hydroxy-3-{1-[4-(6-methoxy-pyridin-3-yl)-benzenesulfonyl]-1H-pyrrol-3-yl}-acrylamide], the negative-log EC50 (pEC50) in data set [1] is 5.28 to 6.55. In addition, the pIC50 in data set [2] is 5.64 to 7.11.

With `Nc1ccc(-c2ccc(S(=O)(=O)n3ccc(C=CC(=O)NO)c3)cc2)cn1` [Compound 4, (E)-3-∴1-[4-(6-Amino-pyridin-3-yl)-benzenesulfonyl]-1H-pyrrol-3-yl)-N-hydroxy-acrylamide], in data set [1], the pEC50 was 5.28 to 6.55. Also, in data set [2], the pIC50 is 5.64 to 7.11.

For `COc1ccc(-c2ccc(S(=O)(=O)n3ccc(/C=C/C(=O)Nc4ccccc4N)c3)cc2)cn1` [Compound 5, (E)-N-(2-Amino-phenyl)-3-{1-[4-(6-methoxy-pyridin-3-yl)-benzenesulfonyl]-1H-pyrrol-3-yl}-acrylamide], in data set [1], the pEC50 is 5.28 to 6.55. Further, the pIC50 in data set [2] is 5.64 to 7.11.

As to `Nc1ccc(-c2ccc(S(=O)(=O)n3ccc(/C=C/C(=O)Nc4ccccc4N)c3)cc2)cn1` [Compound 6, (E)-N-(2-Amino-phenyl)-3-{1-[4-(6-amino-pyridin-3-yl)-benzenesulfonyl]-1H-pyrrol-3-yl}-acrylamide], the pEC50 in data set [1] was 5.28 to 6.55. Also, in data set [2], the pIC50 is 5.64 to 7.11.

Turning to `Cn1cc(-c2ccc(S(=O)(=O)n3ccc(/C=C/C(=O)Nc4ccccc4N)c3)cc2)cn1` [Compound 7, (E)-N-(2-Amino-phenyl)-3-{1-[4-(1-methyl-1H-pyrazol-4-yl)-benzenesulfonyl]-1H-pyrrol-3-yl}-acrylamide], in data set [1], the pEC50 is 5.28 to 6.55. In addition, the pIC50 in data set [2] is 5.64 to 7.11.

One may read the melting point as the temperature, or range, at which the solid turns liquid. `Cn1cc(-c2cccc(S(=O)(=O)n3ccc(/C=C/C(=O)Nc4ccccc4N)c3)c2)cn1` [Compound 15, (E)-N-(2-Amino-phenyl)-3-{1-[3-(1-methyl-1H-pyrazol-4-yl)-benzenesulfonyl]-1H-pyrrol-3-yl}-acrylamide] had a melting point of 193 to 197 °C. Still for that read-out and setting: then `Cc1ccc(S(=O)(=O)NC2(S(=O)(=O)n3ccc(/C=C/C(=O)NO)c3)C=CC(c3ccccc3)=CC2)cc1` (stereo not shown) [Compound 29, (E)-N-Hydroxy-3-{1-[4-(toluene-4-sulfonylamino)-biphenyl-4-sulfonyl]-1H-pyrrol-3-yl}-acrylamide], with 119 to 126 °C.

`O=C(/C=C/c1ccn(S(=O)(=O)c2cc(-c3ccccc3)ccc2OCCCN2CCOCC2)c1)NO` [Compound 38, (E)-N-Hydroxy-3-{1-[4-(3-morpholin-4-yl-propoxy)-biphenyl-3-sulfonyl]-1H-pyrrol-3-yl}-acrylamide] had a melting point of 167 to 172 °C. Also, the pEC50 in data set [1] was 5.36 to 7.57. Turning to `O=C(/C=C/c1ccn(S(=O)(=O)c2cc(-c3ccccc3)ccc2CCCN2CCOCC2)c1)NO` [Compound 45, (E)-N-Hydroxy-3-{1-[4-(3-morpholin-4-yl-propyl)-biphenyl-3-sulfonyl]-1H-pyrrol-3-yl}-acrylamide], the melting point lay in the range of 215 to 217 °C. Besides, the pEC50 in data set [1] was 5.36 to 7.57. On to `CN(C)CC1(S(=O)(=O)n2ccc(/C=C/C(=O)Nc3ccccc3N)c2)C=CC(c2ccccc2)=CC1` (stereo not shown) [Compound 47, (E)-N-(2-Amino-phenyl)-3-[1-(4-dimethylaminomethyl-biphenyl-4-sulfonyl)-1H-pyrrol-3-yl]-acrylamide], for which the melting point was in the range of 211 to 216 °C. Turning to `COCCNCc1ccc(-c2cccc(S(=O)(=O)n3ccc(C=CC(=O)NO)c3)c2)cc1` [Compound 58, (E)-N-Hydroxy-3-(1-{4′-[(2-methoxy-othylamino)-methyl]-biphenyl-3-sulfonyl}-1H-pyrrol-3-yl)-acrylamide], in data set [1], the negative logarithm of the EC50 (pEC50) is 5.36 to 7.57. Same read-out and setting: the result for `CS(=O)(=O)Nc1cccc(-c2ccc(S(=O)(=O)n3ccc(/C=C/C(=O)Nc4ccccc4N)c3)cc2)c1` [Compound 59, (E)-N-(2-Amino-phenyl)-3-[1-(3′-methanesulfonylamino-biphenyl-4-sulfonyl)-1H-pyrrol-3-yl]-acrylamide] reads 5.36 to 7.57; that for `CN1CCN(Cc2ccc(-c3cccc(S(=O)(=O)n4ccc(/C=C/C(=O)NO)c4)c3)cc2)CC1` [Compound 62, (E)-N-Hydroxy-3-{1-[4′-(4-methyl-piperazin-1-ylmethyl)-biphenyl-3-sulfonyl]-1H-pyrrol-3-yl}-acrylamide], 5.36 to 7.57. On to `O=C(/C=C/c1ccn(S(=O)(=O)c2cc(-c3ccccc3)ccc2CNC2CC2)c1)NO` [Compound 63, (E)-3-[1-(4-Cyclopropylaminomethyl-biphenyl-3-sulfonyl)-1H-pyrrol-3-yl]-N-hydroxy-acrylamide], for which the melting point was 118 to 119 °C. The negative-log EC50 (pEC50) in data set [1] is 5.36 to 7.57.

Compound `NCC1(S(=O)(=O)n2ccc(/C=C/C(=O)Nc3ccccc3N)c2)C=CC(c2ccccc2)=CC1` (stereo not shown) [Compound 93, (E)-3-[1-(4-Aminomethyl-biphenyl-4-sulfonyl)-1H-pyrrol-3-yl]-N-(2-amino-phenyl)-acrylamide] showed a melting point of 278 to 280 °C.

`Nc1ccccc1NC(=O)/C=C/c1ccn(S(=O)(=O)C2(CN3CCOCC3)C=CC(c3ccccc3)=CC2)c1` (stereo not shown) [Compound 107, (E)-N-(2-Amino-phenyl)-3-[1-(4-morpholin-4-ylmethyl-biphenyl-4-sulfonyl)-1H-pyrrol-3-yl]-acrylamide] displayed a melting point of 196 to 201 °C.
